ChEMBL document CHEMBL1201862, “PubChem BioAssay data set” (2004)
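Where inhibition never reached the appropriate level, the endpoint shown equals the highest concentration tested. Otherwise, values were interpolated linearly from a five-concentration, 48-hour dose response in 96-well plates. GI50 marks 50% less growth.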 Calls of active or inactive are those of the source. No stated cut-off is given here; in the data, active = GI50 up to about 1.1 µM and inactive = higher.

Experiments:
Assay in all cases: NCI tumour cell line growth inhibition, 48 h
LOX IMVI = test system: LOX IMVI
SNB-19 = test system: SNB-19
HOP-62 = test system: HOP-62
OVCAR-4 = test system: OVCAR-4
SR = test system: SR
SNB-75 = test system: SNB-75
A498 = test system: A498
HT-29 = test system: HT-29
HL-60 = test system: HL-60
HCT-116 = test system: HCT-116
SF-539 = test system: SF-539
SF-268 = test system: SF-268
IGROV-1 = test system: IGROV-1
EKVX = test system: EKVX
NCI-H460 = test system: NCI-H460
A549 = test system: A549
SNB-78 = test system: SNB-78
LXFL 529 = test system: LXFL 529
MOLT-4 = test system: MOLT-4
UO-31 = test system: UO-31
SW-620 = test system: SW-620
NCI-H226 = test system: NCI-H226
NCI-H23 = test system: NCI-H23
COLO 205 = test system: COLO 205
Malme-3M = test system: Malme-3M
DLD-1 = test system: DLD-1
DMS-114 = test system: DMS-114
HOP-92 = test system: HOP-92
SK-MEL-28 = test system: SK-MEL-28
HOP-18 = test system: HOP-18
ACHN = test system: ACHN
786-0 = test system: 786-0
UACC-62 = test system: UACC-62
K562 = test system: K562
HCC 2998 = test system: HCC 2998
TK-10 = test system: TK-10
OVCAR-8 = test system: OVCAR-8
DMS-273 = test system: DMS-273
RPMI-8226 = test system: RPMI-8226
SN12C = test system: SN12C
SK-OV-3 = test system: SK-OV-3
RXF 393 = test system: RXF 393
HCT-15 = test system: HCT-15
U-251 = test system: U-251
KM12 = test system: KM12
XF498 = test system: XF498
SK-MEL-5 = test system: SK-MEL-5
NCI-H522 = test system: NCI-H522
OVCAR-5 = test system: OVCAR-5
SK-MEL-2 = test system: SK-MEL-2
CAKI-1 = test system: CAKI-1
RXF 631 = test system: RXF 631
UACC-257 = test system: UACC-257
M14 = test system: M14
KM-20L2 = test system: KM-20L2
OVCAR-3 = test system: OVCAR-3
SF-295 = test system: SF-295
M19-MEL = test system: M19-MEL

Measured: GI50

N#CCCN(c1ccc(/C=N/c2ccccc2Cl)cc1)S(=O)(=O)c1ccccc1
inactive: LOX IMVI > 100 µM | SNB-19 > 100 µM | HOP-62 > 100 µM | OVCAR-4 > 100 µM | SR > 100 µM | SNB-75 > 100 µM | A498 > 100 µM | HT-29 > 100 µM | HL-60 > 100 µM | HCT-116 > 100 µM | SF-539 > 100 µM | SF-268 > 100 µM | IGROV-1 > 100 µM | EKVX > 100 µM | NCI-H460 > 100 µM | A549 > 100 µM | SNB-78 > 100 µM | LXFL 529 > 100 µM | MOLT-4 > 100 µM | UO-31 > 100 µM | SW-620 > 100 µM | NCI-H226 > 100 µM | NCI-H23 > 100 µM | COLO 205 > 100 µM | Malme-3M > 100 µM | DLD-1 > 100 µM | DMS-114 > 100 µM | HOP-92 > 100 µM | SK-MEL-28 > 100 µM | HOP-18 > 100 µM | ACHN > 100 µM | 786-0 > 100 µM | UACC-62 > 100 µM | K562 > 100 µM | HCC 2998 > 100 µM | TK-10 > 100 µM | OVCAR-8 > 100 µM | DMS-273 > 100 µM | RPMI-8226 > 100 µM | SN12C > 100 µM | SK-OV-3 > 100 µM | RXF 393 > 100 µM | U-251 > 100 µM | KM12 > 100 µM | XF498 > 100 µM | SK-MEL-5 > 100 µM | NCI-H522 > 100 µM | OVCAR-5 > 100 µM | SK-MEL-2 > 100 µM | CAKI-1 > 100 µM | RXF 631 > 100 µM | UACC-257 > 100 µM | M14 > 100 µM | KM-20L2 > 100 µM | OVCAR-3 > 100 µM | SF-295 > 100 µM | M19-MEL > 100 µM
> 100 µM: HCT-15
